This experiment has as its target T1, GSK3beta (Homo sapiens, UniProt P49841).
T1 construct: purchased Invitrogen
The experiment in a line: Z'-LYTE kinase assay (FRET, SER/THR 9 peptide). Type of experiment: biochemical. The note with it: 0.04 ng/mcl GSKbeta (Invitrogen), 2 mcM SER/THR 9 peptide, 15 mcM ATP, 1 hour at room temperature, 1% DMSO. The procedure:
GSK3beta activity was measured in the presence or absence of compounds using Z′-LYTE kinase assay (Rodems S M, et al., Assay Drug Dev Technol. 1: 9-19, 2002.) kit with SER/THR 9 peptide (Invitrogen) following the manufacturer's instruction. The Z′-LYTE kinase assay kit employs a fluorescence resonance energy transfer (FRET) between two fluorophores, coumarin and fluorescein, attached to each end of a substrate peptide.
Test compounds were dissolved in DMSO at 12.5 mM and then serially diluted as the DMSO concentration in the assays to be 1%. The serially diluted compounds, 0.04 ng/mcl GSKbeta (Invitrogen) and 2 mcM SER/THR 9 peptide were reacted in a reaction buffer (50 mM HEPES pH 7.5, 0.01% Brij-35, 10 mM MgCl2, 1 mM EGTA, 15 mcM ATP). For 0% phosphorylation control, ATP was omitted from the reaction mixture. For 100% phosphorylation control, SER/THR 9 phosphopeptide was used in place of the SER/THR 9 peptide. Following 1 hour incubation at room temperature, the reaction was stopped by the addition of half assay volume of development solution and further incubated for 1 hour at room temperature. After adding the half assay volume of stop reagent, emission signals of coumarin and fluorescein were measured by Wallac EnVision 2103 multilabel reader (PerkinElmer). The extent of phosphorylation was determined according to the 0% and 100% phosphorylation control samples using the following equation:
C100%=coumarin emission signal of the 100% phosphorylation control C0%=coumarin emission signal of the 0% phosphorylation control F100%=fluorescein emission signal of the 100% phosphorylation control F0%=fluorescein emission signal of the 0% phosphorylation control
IC50 values were calculated by nonlinear four parameter fit using SigmaPlot, version 10.0 (Systat Software, Inc.).

As usually defined, the IC50 is the concentration that inhibits the measured activity by half. A low value points to greater potency in that assay.

T1 sequence (P49841 whole entry): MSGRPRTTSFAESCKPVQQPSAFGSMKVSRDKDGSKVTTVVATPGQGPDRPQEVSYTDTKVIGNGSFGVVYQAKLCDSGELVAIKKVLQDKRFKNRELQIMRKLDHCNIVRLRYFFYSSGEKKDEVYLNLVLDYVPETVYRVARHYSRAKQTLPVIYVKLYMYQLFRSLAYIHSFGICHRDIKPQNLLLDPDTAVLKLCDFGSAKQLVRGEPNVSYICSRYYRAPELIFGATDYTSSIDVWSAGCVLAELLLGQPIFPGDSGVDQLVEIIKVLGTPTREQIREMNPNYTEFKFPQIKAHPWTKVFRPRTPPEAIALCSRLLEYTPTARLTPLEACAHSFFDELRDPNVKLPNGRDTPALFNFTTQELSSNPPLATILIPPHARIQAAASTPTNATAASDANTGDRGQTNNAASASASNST

In turn, `O=C(/C=C/c1cnc[nH]1)Nc1ccc(O)c2[nH]c(-c3cccs3)nc12` [Example 120] returned an IC50 of 3000 nM.
For the compound `O=C(NCCc1ccc(O)c(O)c1)c1ccc(O)c2[nH]c(-c3ccco3)nc12` [Example 80, N-(3,4-Dihydroxyphenethyl)-2-(furan-2-yl)-7-hydroxy-1H-benzo[d]imidazole-4-carboxamide], the IC50 turned out to be 19 nM.
`CC(=O)NCCNC(=O)c1ccc(O)c2[nH]c(-c3cccs3)nc12` [Example 42, N-(2-Acetamidoethyl)-7-hydroxy-2-(thiophen-2-yl)-1H-benzo[d]imidazole-4-carboxamide]: the half-inhibitory concentration (IC50) was determined as 74 nM.
As for `O=C(NCC(O)CO)c1ccc(O)c2nc(C3CC3)[nH]c12` (stereo not drawn) [Example 97, 2-Cyclopropyl-N-(2,3-dihydroxypropyl)-4-hydroxy-1H-benzo[d]imidazole-7-carboxamide], it took 150 nM to reach half-maximal inhibition (IC50).
With `O=C(NCCCC1C=NNC1=O)c1ccc(O)c2[nH]c(-c3ccco3)nc12` (stereo not drawn) [Example 79] the figure was 30 nM; with `O=C(NCCCn1ccnc1)c1ccc(O)c2[nH]c(-c3cccs3)nc12` [Example 76, N-[3-(1H-Imidazol-1-yl)propyl]-7-hydroxy-2-(thiophen-2-yl)-1H-benzo[d]imidazole-4-carboxamide], 1.7 nM; with `O=C(NCCc1ncc[nH]1)c1ccc(O)c2[nH]c(-c3cccs3)nc12` [Example 62, N-[2-(1H-Imidazol-2-yl)ethyl]-7-hydroxy-2-(thiophen-2-yl)-1H-benzo[d]imidazole-4-carboxamide], 260 nM.
On to `NS(=O)(=O)c1ccc(CCNC(=O)c2ccc(O)c3nc(C4CC4)[nH]c23)cc1` [Example 101, 2-Cyclopropyl-4-hydroxy-N-(4-sulfamoylphenethyl)-1H-benzo[d]imidazole-7-carboxamide], for which half-maximal inhibition (IC50) required 120 nM.
In turn, `O=C(NCCNS(=O)(=O)c1ccncc1)c1ccc(O)c2[nH]c(-c3cccs3)nc12` [Example 40, 7-Hydroxy-N-[2-(pyridine-4-sulfonamido)ethyl]-2-(thiophen-2-yl)-1H-benzo[d]imidazole-4-carboxamide] returned an IC50 of 390 nM.
In turn, `NS(=O)(=O)c1ccc(CNC(=O)c2ccc(O)c3[nH]c(-c4cccs4)nc23)cc1` [Example 8, 7-Hydroxy-N-(4-sulfamoylbenzyl)-2-(thiophen-2-yl)-1H-benzo[d]imidazole-4-carboxamide] returned an IC50 of 52 nM.
`O=C(NCCCNCCO)c1ccc(O)c2[nH]c(-c3cccs3)nc12` [Example 12, 7-Hydroxy-N-[3-(2-hydroxyethylamino)propyl]-2-(thiophen-2-yl)-1H-benzo[d]imidazole-4-carboxamide] registered a concentration for half-maximal inhibition (IC50) of 180 nM.
`CS(=O)(=O)Nc1ccc(NCCNC(=O)c2ccc(O)c3[nH]c(-c4cccs4)nc23)nc1` [Example 69, 7-Hydroxy-N-{2-[5-(methylsulfonamido)pyridin-2-ylamino]ethyl}-2-(thiophen-2-yl)-1H-benzo[d]imidazole-4-carboxamide] gave an IC50 of 22 nM.
With `Cn1cncc1CCNC(=O)c1ccc(O)c2[nH]c(-c3cccs3)nc12` [Example 35, 7-Hydroxy-N-[2-(1-methyl-1H-imidazol-5-yl)ethyl]-2-(thiophen-2-yl)-1H-benzo[d]imidazole-4-carboxamide], the IC50 came out at 130 nM.
As to `Nc1ccc(CCNC(=O)c2ccc(O)c3nc(-c4ccccc4)[nH]c23)cc1` [Example 93, N-(4-Aminophenethyl)-4-hydroxy-2-phenyl-1H-benzo[d]imidazole-7-carboxamide], the IC50 came out at 400 nM.
With `O=C(Nc1cc(O)ccc1C(=O)NC1CCCNC1)c1cccs1` (stereo not drawn) [Example 122, N-(5-hydroxy-2-(piperidin-3-ylcarbamoyl)phenyl)thiophene-2-carboxamide] the figure was 8100 nM.
Turning to `NS(=O)(=O)c1ccc(CCNC(=O)c2ccc(O)c3[nH]c(-c4cccs4)nc23)cc1` [Example 21, 7-Hydroxy-N-(4-sulfamoylphenethyl)-2-(thiophen-2-yl)-1H-benzo[d]imidazole-4-carboxamide], half-maximal inhibition (IC50) required 280 nM.
In turn, `O=C(NCCNc1ccccn1)c1ccc(O)c2[nH]c(-c3cccs3)nc12` [Example 11, 7-Hydroxy-N-[2-(pyridin-2-ylamino)ethyl]-2-(thiophen-2-yl)-1H-benzo[d]imidazole-4-carboxamide] had an IC50 of 130 nM.
With `COC(=O)C(CO)NC(=O)c1ccc(O)c2[nH]c(-c3cccs3)nc12` (stereo not drawn) [Example 15, Methyl 3-Hydroxy-2-[7-hydroxy-2-(thiophen-2-yl)-1H-benzo[d]imidazole-4-carboxamido]propanoate] the figure was 22 nM; with `O=C(CCc1cnc[nH]1)Nc1ccc(O)c2[nH]c(-c3cccs3)nc12` [Example 121, N-(7-hydroxy-2-(thiophen-2-yl)-1H-benzo[d]imidazol-4-yl)-3-(1H-imidazol-5-yl)propanamide], 1700 nM; with `CC(=O)Nc1ccc(NCCNC(=O)c2ccc(O)c3[nH]c(-c4cccs4)nc23)nc1` [Example 70, N-[2-(5-Acetamidopyridin-2-ylamino)ethyl]-7-hydroxy-2-(thiophen-2-yl)-1H-benzo[d]imidazole-4-carboxamide], 81 nM.
As to `O=C(N[C@@H](CO)Cc1c[nH]cn1)c1ccc(O)c2[nH]c(-c3cccs3)nc12` [Example 17, (R)-7-Hydroxy-N-[1-hydroxy-3-(1H-imidazol-4-yl)propan-2-yl]-2-(thiophen-2-yl)-1H-benzo[d]imidazole-4-carboxamide], the 50% inhibitory concentration (IC50) came to 170 nM.
`CC(C)NCCCNC(=O)c1ccc(O)c2[nH]c(-c3cccs3)nc12` [Example 43, N-[3-(Isopropylamino)propyl]-7-hydroxy-2-(thiophen-2-yl)-1H-benzo[d]imidazole-4-carboxamide] yielded an IC50 of 220 nM.
On to `O=C(Nc1ccc(O)cc1)c1ccc(O)c2[nH]c(C3CC3)nc12` [Example 91], for which the IC50 came out at 400 nM.
For `CN(C)CCNC(=O)c1ccc(O)c2[nH]c(-c3cccs3)nc12` [Example 36, N-[2-(dimethylamino)ethyl]-7-hydroxy-2-(thiophen-2-yl)-1H-benzo[d]imidazole-4-carboxamide], the IC50 was 180 nM.
With `O=C(NCc1ccc(O)c(O)c1)c1ccc(O)c2[nH]c(-c3cccs3)nc12` [Example 37, N-(3,4-Dihydroxybenzyl)-7-hydroxy-2-(thiophen-2-yl)-1H-benzo[d]imidazole-4-carboxamide], it took 38 nM to reach half-maximal inhibition (IC50).
As for `O=C(N[C@@H](Cc1cnc[nH]1)C(=O)O)c1ccc(O)c2[nH]c(-c3cccs3)nc12` [Example 71, (S)-2-[7-Hydroxy-2-(thiophen-2-yl)-1H-benzo[d]imidazole-4-carboxamido]-3-(1H-imidazol-5-yl)propanoic Acid], the concentration for half-maximal inhibition (IC50) amounted to 340 nM.
For `NC(=O)c1ccc(OCCNC(=O)c2ccc(O)c3[nH]c(-c4cccs4)nc23)nc1` [Example 49, N-[2-(5-Carbamoylpyridin-2-yloxy)ethyl]-7-hydroxy-2-(thiophen-2-yl)-1H-benzo[d]imidazole-4-carboxamide], it took 73 nM to reach half-maximal inhibition (IC50).

The values above are taken from patent US20110190351A1, “Benzoimidazole Derivatives and Glycogen Synthase Kinase-3 Beta Inhibitors Containing the Same” (Oncotherapy Science, Inc., priority 2008, published 2011).
